From article PMC2994747, “Molecular Characterization of c-Abl/c-Src Kinase Inhibitors Targeted against Murine Tumour Progenitor Cells that Express Stem Cell Markers” (PLoS ONE, 2010)
Like-named read-outs stand apart in the source and are kept apart here.

Key:
A2C12 [1] = assay: MTS cell viability assay; format: cell-based, mouse
Protocol: (§1) Three human and eleven murine cancer cell lines were used. The human NSCLC cell line A549 (ACC 107) and the human colorectal carcinoma cell line CaCo2 (ACC 169) were obtained from Deutsche Sammlung von Mikroorganismen und Zellkulturen (DSMZ, Braunschweig, Germany). The human hepatocellular carcinoma cell line HepG2 (HB-8065) was obtained from American Type Culture Collection (Manassas, VA, USA). The 11 murine NSCLC cell lines were established as described recently. Cells were grown in monolayer cultures in DMEM containing 10% foetal calf serum, 4 mmol/l L-glutamine and 2% Penicillin/Streptomycin at 37°C in a humidified atmosphere of 95% air and 5% CO2.
(§2) Cell culture viability was monitored by CellTiter96® AQueous One Solution Cell Proliferation Assay (Promega GmbH, Mannheim, Germany). The cells were seeded in triplicates in 96-well microtitre plates and treated with the dual kinase inhibitors or vehicle (0.2% DMSO). After 24 h or 96 h of treatment the MTS tetrazolium reagent was added to the cells and incubated for 1 h. Absorbance at 490 nm was assayed with a Victor3 Wallac 1420 Multilabel counter (PerkinElmer, Waltham, MA, USA).

BetaD5 [2] = assay: MTS cell viability assay; format: cell-based, mouse
Protocol: as §1, §2

GammaA3 [3] = assay: MTS cell viability assay; format: cell-based, mouse
Protocol: as §1, §2

GammaD12 [4] = assay: MTS cell viability assay; format: cell-based, mouse; settings: MTS
Protocol: as §1, §2

A549 [5] = assay: MTS cell viability assay; format: cell-based, human
Protocol: as §1, §2

CaCo2 [6] = assay: MTS cell viability assay; format: cell-based, human
Protocol: as §1, §2

HepG2 [7] = assay: MTS cell viability assay; format: cell-based, human
Protocol: as §1, §2

A2C12 [8] = assay: Cell cycle analysis by flow cytometry; format: cell-based, mouse; settings: IC50 concentration, 96 h
Protocol: (§3) CycleTEST™ PLUS DNA Reagent Kit (Becton Dickinson GmbH, Heidelberg, Germany) for cell cycle analysis was used, according to the instructions of the manufacturer. Briefly, the cells were harvested with trypsin, washed with PBS, and resuspended in CycleTEST Buffer. The cells were centrifuged and resuspended in solution A. After incubation for 10 min at room temperature, solution B was added and incubated. After adding solution C, the samples were incubated at 4°C protected from light. The samples were stored on ice and protected from light until analysis by FACScan flow cytometer (Becton Dickinson GmbH, Heidelberg, Germany).

BetaD5 [9] = assay: Cell cycle analysis by flow cytometry; format: cell-based, mouse; settings: IC50 concentration, 96 h
Protocol: as §3

GammaA3 [10] = assay: Cell cycle analysis by flow cytometry; format: cell-based, mouse; settings: IC50 concentration, 96 h
Protocol: as §3

GammaD12 [11] = assay: Cell cycle analysis by flow cytometry; format: cell-based, mouse; settings: IC50 concentration, 96 h
Protocol: as §3

A549 [12] = assay: Cell cycle analysis by flow cytometry; format: cell-based, human; settings: IC50 concentration, 96 h
Protocol: as §3

CaCo2 [13] = assay: Cell cycle analysis by flow cytometry; format: cell-based, human; settings: IC50 concentration, 96 h
Protocol: as §3

HepG2 [14] = assay: Cell cycle analysis by flow cytometry; format: cell-based, human; settings: IC50 concentration, 96 h
Protocol: as §3

c-Abl = molecular target: T1, c-Abl (Homo sapiens, UniProt P00519); assay: Abl filter-binding kinase assay (Abtide, [γ-32P]ATP); format: biochemical; settings: isolated Abl; calculated from ID50, ATP-competitive; E0 0.005, S0 0.012 µM
T1 construct: His tag; purchased Upstate (Lake Placid, NY, USA)
Protocol: (§4) Baculovirus-produced recombinant purified his-tagged active against human Src and Abl were purchased from Upstate (Lake Placid, NY, USA).
(§5) Src activity was measured in a filter-binding assay using the Src Assay Kit (Upstate, Lake Placid, NY, USA), according to the manufacturer's protocol, using the specific Src peptide substrate [[…]] in the presence of 0.125 pmol of Src and 0.160 pmol of [γ-^32P]ATP. Abl activity was measured in a filter-binding assay using an Abl specific peptide substrate (Abtide, Upstate). Reaction conditions were (in a final volume of 10 µl): 25 mM Tris-HCl pH 7.5, 1 mM DTT, 0.012 µM [γ-^32P]ATP, 0.022 µM c-Abl. Reactions were incubated 10 min at 30°C.The samples (9 µl) were spotted on paper cellulose filters which were washed according to the manufacturer's protocol. Filter-bound radioactivity was measured by liquid scintillation with a Microbeta-Trilux apparatus (PerkinElmer, Waltham, MA, USA).
(§6) The ID50 were converted to Ki according to a competitive mechanism with respect to the substrate ATP. […] Since (i) the ATP concentration was limiting, i.e., [ATP], Km(ATP), and (ii) the enzyme concentration was not negligible with respect to the ATP concentration, the classical Cheng-Prusoff relationship was not applicable. Consequently, Ki values were calculated according to [drawing 3] (2) where S0 is the concentration of the competing substrate (ATP) and E0 is the concentration of the enzyme. Each experiment was done in triplicate and mean values were used for the interpolation. Curve fitting was performed with the program GraphPad Prism.

c-Src = molecular target: T2, c-Src (Homo sapiens, UniProt P12931); assay: Src filter-binding kinase assay (Src Assay Kit); format: biochemical; settings: isolated Src; calculated from ID50, ATP-competitive; E0 0.005, S0 0.012 µM
T2 construct: His tag; purchased Upstate (Lake Placid, NY, USA)
Protocol: as §4, §5, §6

[15] = 24 h, read-out: Calculated IC50 after single treatment for 24 h
[16] = 96 h, read-out: Calculated IC50 after daily treatment for 96 h
[17] = Mus musculus, 24 h, read-out: Calculated IC50 after single treatment for 24 h
[18] = Mus musculus, 96 h, read-out: Calculated IC50 after daily treatment for 96 h

T2 sequence (P12931 whole entry): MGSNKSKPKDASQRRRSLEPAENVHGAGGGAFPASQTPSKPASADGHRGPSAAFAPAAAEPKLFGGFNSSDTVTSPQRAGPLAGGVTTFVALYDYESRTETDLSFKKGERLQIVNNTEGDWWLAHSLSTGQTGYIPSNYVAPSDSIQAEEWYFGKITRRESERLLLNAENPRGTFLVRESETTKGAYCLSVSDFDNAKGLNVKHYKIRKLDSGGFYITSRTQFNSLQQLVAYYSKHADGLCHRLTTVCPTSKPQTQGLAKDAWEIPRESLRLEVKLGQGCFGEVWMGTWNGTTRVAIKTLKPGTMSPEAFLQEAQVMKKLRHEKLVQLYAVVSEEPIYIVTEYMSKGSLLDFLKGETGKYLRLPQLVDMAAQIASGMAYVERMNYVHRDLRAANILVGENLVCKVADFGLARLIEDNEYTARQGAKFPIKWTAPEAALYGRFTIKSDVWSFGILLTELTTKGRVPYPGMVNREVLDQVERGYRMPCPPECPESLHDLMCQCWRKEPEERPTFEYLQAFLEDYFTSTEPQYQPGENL
T1 sequence (P00519 whole entry): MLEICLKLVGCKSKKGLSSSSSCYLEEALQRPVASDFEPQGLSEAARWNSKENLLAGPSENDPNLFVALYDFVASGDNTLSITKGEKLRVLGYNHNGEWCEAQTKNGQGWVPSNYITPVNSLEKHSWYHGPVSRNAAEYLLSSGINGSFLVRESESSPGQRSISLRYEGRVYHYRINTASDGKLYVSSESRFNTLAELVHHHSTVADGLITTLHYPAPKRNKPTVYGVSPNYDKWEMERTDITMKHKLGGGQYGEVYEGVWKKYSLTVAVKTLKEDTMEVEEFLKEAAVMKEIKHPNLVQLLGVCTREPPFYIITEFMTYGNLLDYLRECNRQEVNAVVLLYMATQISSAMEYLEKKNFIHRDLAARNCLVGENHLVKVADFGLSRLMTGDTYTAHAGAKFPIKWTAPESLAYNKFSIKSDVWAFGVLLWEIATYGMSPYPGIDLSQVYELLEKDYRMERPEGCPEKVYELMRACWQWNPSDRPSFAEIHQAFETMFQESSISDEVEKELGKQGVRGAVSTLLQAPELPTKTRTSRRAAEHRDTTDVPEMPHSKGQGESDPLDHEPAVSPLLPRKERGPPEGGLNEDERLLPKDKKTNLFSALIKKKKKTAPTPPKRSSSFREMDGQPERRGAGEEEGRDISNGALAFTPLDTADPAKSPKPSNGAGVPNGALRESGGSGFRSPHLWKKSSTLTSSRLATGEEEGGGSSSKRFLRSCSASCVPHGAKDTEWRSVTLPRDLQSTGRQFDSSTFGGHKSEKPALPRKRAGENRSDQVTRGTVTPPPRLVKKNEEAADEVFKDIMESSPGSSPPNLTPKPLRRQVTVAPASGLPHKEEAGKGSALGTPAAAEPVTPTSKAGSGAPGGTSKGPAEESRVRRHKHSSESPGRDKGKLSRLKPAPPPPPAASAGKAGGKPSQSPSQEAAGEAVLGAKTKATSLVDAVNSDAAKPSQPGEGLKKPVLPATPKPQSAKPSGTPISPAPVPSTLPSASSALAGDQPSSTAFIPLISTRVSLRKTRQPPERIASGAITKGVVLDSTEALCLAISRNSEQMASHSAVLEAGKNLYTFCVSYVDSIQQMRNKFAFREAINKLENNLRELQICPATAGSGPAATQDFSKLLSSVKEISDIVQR

SMILES | Cells in G1 phase (A2C12 [8]) [%] | Cells in G2 phase (A2C12 [8]) [%] | Cells in S phase (A2C12 [8]) [%] | Cells in G1 phase (BetaD5 [9]) [%] | Cells in G2 phase (BetaD5 [9]) [%] | Cells in S phase (BetaD5 [9]) [%] | Cells in G1 phase (GammaA3 [10]) [%] | Cells in G2 phase (GammaA3 [10]) [%] | Cells in S phase (GammaA3 [10]) [%] | Cells in G1 phase (GammaD12 [11]) [%] | Cells in G2 phase (GammaD12 [11]) [%] | Cells in S phase (GammaD12 [11]) [%] | Cells in G1 phase (A549 [12]) [%] | Cells in G2 phase (A549 [12]) [%] | Cells in S phase (A549 [12]) [%] | Cells in G1 phase (CaCo2 [13]) [%] | Cells in G2 phase (CaCo2 [13]) [%] | Cells in S phase (CaCo2 [13]) [%] | Cells in G1 phase (HepG2 [14]) [%] | Cells in G2 phase (HepG2 [14]) [%] | further results
CSc1nc(Nc2cccc(F)c2)c2cnn(CC(Cl)c3ccc(F)cc3)c2n1 (centres unmarked) [Si93] | 56.8 | 14.6 | 28.6 | 42.4 | 25.2 | 22.1 | 76.1 | 16.6 | 7.2 | 39.5 | 14.7 | 45.8 | 72.6 | 5 | 22.4 | 59.3 | 9.5 | 31.1 | 55 | 9.6 | IC50 (A2C12 [1]; [15]): 16.9 ± 0.9 µM; IC50 (A2C12 [1]; [16]): 6.5 ± 0.3 µM; IC50 (BetaD5 [2]; [15]): 13.8 ± 2 µM; IC50 (BetaD5 [2]; [16]): 10.4 ± 0.5 µM; IC50 (GammaA3 [3]; [15]): 15.6 ± 0.6 µM; IC50 (GammaA3 [3]; [16]): 7.7 ± 0.4 µM; IC50 (GammaD12 [4]; [15]): 11.8 ± 0.4 µM; IC50 (GammaD12 [4]; [16]): 8.8 ± 0.3 µM; IC50 (A549 [5]; [15]): 21.5 ± 4.2 µM; IC50 (A549 [5]; [16]): 6.5 ± 0.2 µM; IC50 (CaCo2 [6]; [15]): 65.6 ± 2.7 µM; IC50 (CaCo2 [6]; [16]): 6.4 ± 0.1 µM; IC50 (HepG2 [7]; [15]): 65.6 ± 2.7 µM; IC50 (HepG2 [7]; [16]): 19.1 ± 1.6 µM; Cells in S phase (HepG2 [14]): 35.4%
Fc1ccc(C(Cl)Cn2ncc3c(Nc4cccc(Cl)c4)ncnc32)cc1 (centres unmarked) [Si104] | 45.8 | 13.8 | 40.4 | 57.4 | 25.3 | 17.3 | 61.9 | 16.9 | 21.2 | 35.3 | 7.8 | 56.9 | 68.1 | 5.5 | 26.4 | 51 | 10.9 | 38.1 | 56.2 | 8.1 | IC50 (A2C12 [1]; [15]): 16.2 ± 1 µM; IC50 (A2C12 [1]; [16]): 6.5 ± 0.3 µM; IC50 (BetaD5 [2]; [15]): 12.6 ± 2.6 µM; IC50 (BetaD5 [2]; [16]): 12.4 ± 1 µM; IC50 (GammaA3 [3]; [15]): 18.3 ± 0.7 µM; IC50 (GammaA3 [3]; [16]): 11.4 ± 0.3 µM; IC50 (GammaD12 [4]; [15]): 13.2 ± 0.9 µM; IC50 (GammaD12 [4]; [16]): 9.2 ± 0.5 µM; IC50 (A549 [5]; [15]): 17.8 ± 2.6 µM; IC50 (A549 [5]; [16]): 6.8 ± 0.1 µM; IC50 (CaCo2 [6]; [15]): 40.8 ± 1.7 µM; IC50 (CaCo2 [6]; [16]): 5.8 ± 0.2 µM; IC50 (HepG2 [7]; [15]): 40.9 ± 1.7 µM; IC50 (HepG2 [7]; [16]): 10.3 ± 0.7 µM; Cells in S phase (HepG2 [14]): 35.6%
Cc1nc(Nc2cccc(F)c2)c2cnn(CC(Cl)c3ccccc3)c2n1 (centres unmarked) [Si166] | 56.1 | 13.6 | 30.4 | 68.3 | 20.8 | 10.9 | 74.4 | 14.1 | 11.5 | 39.5 | 10.2 | 50.3 | 63.2 | 6.6 | 30.2 | 56.7 | 17.8 | 25.5 | 54.6 | 9.6 | Ki (c-Abl): 0.151 µM; Ki (c-Src): 0.338 µM; IC50 (A2C12 [1]; [17]): 16.6 ± 1.2 µM; IC50 (A2C12 [1]; [18]): 11.5 ± 0.5 µM; IC50 (BetaD5 [2]; [17]): 14 ± 2.1 µM; IC50 (BetaD5 [2]; [18]): 10.6 ± 0.7 µM; IC50 (GammaA3 [3]; [17]): 17 ± 2.3 µM; IC50 (GammaA3 [3]; [18]): 19 ± 1.3 µM; IC50 (GammaD12 [4]; [17]): 18.1 ± 1.4 µM; IC50 (GammaD12 [4]; [18]): 15.9 ± 1.4 µM; IC50 (A549 [5]; Homo sapiens, A549, 24 h, 24 h, read-out: Calculated IC50 after single treatment for 24 h): 20.2 ± 2.5 µM; IC50 (A549 [5]; Homo sapiens, A549, 96 h, 96 h, read-out: Calculated IC50 after daily treatment for 96 h): 8.3 ± 0.3 µM; IC50 (CaCo2 [6]; Homo sapiens, Caco-2, 24 h, read-out: Calculated IC50 after single treatment for 24 h): 37.7 ± 2.4 µM; IC50 (CaCo2 [6]; Homo sapiens, Caco-2, 96 h, read-out: Calculated IC50 after daily treatment for 96 h): 6 ± 0.7 µM; IC50 (HepG2 [7]; Homo sapiens, 24 h, read-out: Calculated IC50 after single treatment for 24 h): 37.7 ± 2.4 µM; IC50 (HepG2 [7]; Homo sapiens, 96 h, read-out: Calculated IC50 after daily treatment for 96 h): 10.8 ± 0.9 µM; Cells in S phase (HepG2 [14]): 35.8%
